From ChEMBL document CHEMBL5252628, “Novel xanthone antibacterials: Semi-synthesis, biological evaluation, and the action mechanisms” (Bioorg Med Chem, 2023) come the findings set out here.

One may read the MIC as the lowest concentration found to suppress growth.

≈ marks a conversion by molar mass, not a printed value. Calls of active or inactive are those of the source. The calls are words filed in the database; no cut-off is given here. Where a SMILES comes first, the peptide text is derived from it. [ ]: non-standard residue; d: D form. Orn = NCCC[C@H](N)C(=O)O

For test [1], the system named is Staphylococcus aureus. Put plainly: Induction of drug resistance in Staphylococcus aureus ATCC 29213 assessed as fold increase in MIC measured after 20 passage. In kind it is functional.
The test system of the next test is Escherichia coli. The experiment in a line: Antibacterial activity against Escherichia coli ATCC 25922 assessed as inhibition of bacterial growth incubated for 18 to 24 hrs by broth microdilution assay. The settings on record: time 18-24 hrs. It is filed as functional. In general terms: In broth dilution the organism is exposed to a series of concentrations in liquid medium.

Test [2] deals with Staphylococcus aureus. Put plainly: Antibacterial activity Staphylococcus aureus ATCC 29213 infected BALB/c mouse assessed as reduction in bacterial burden at 15 mg/kg,iv measured on day 1 and 3 after infection. It is filed as functional, organism-based.
In test [3] the test system is Staphylococcus aureus. Put plainly: Antibacterial activity against Staphylococcus aureus ATCC 29213 assessed as inhibition of bacterial growth incubated for 18 to 24 hrs by broth microdilution assay. It is filed as functional. Particulars: time 18-24 hrs.
Test [4] concerns Staphylococcus aureus. Put plainly: Antibacterial activity against Staphylococcus aureus SH-27 assessed as inhibition of bacterial growth incubated for 18 to 24 hrs by broth microdilution assay. It is filed as functional. The settings on record: time 18-24 hrs.
Test [5] has as its system Staphylococcus aureus. Put plainly: Antibacterial activity against methicillin-resistant Staphylococcus aureus 2 assessed as inhibition of bacterial growth incubated for 18 to 24 hrs by broth microdilution assay. The settings on record: time 18-24 hrs. In kind it is functional.
Test [6] concerns Staphylococcus aureus. The experiment in a line: Antibacterial activity against Staphylococcus aureus ATCC 29213 assessed as separation of plasma wall at 5 x MIC incubated for 2 hrs by transmission electron microscopy analysis. It is filed as functional, organism-based.
Test [7] concerns Staphylococcus aureus. The experiment in a line: Antibacterial activity against methicillin-resistant Staphylococcus aureus 2 assessed as blurred space in cytoplasm and cell wall at 5 x MIC incubated for 2 hrs by transmission electron microscopy analysis. In kind it is functional, organism-based.
In test [8] the test system is Staphylococcus aureus. Put plainly: Antibacterial activity against methicillin-resistant Staphylococcus aureus 2 assessed as separation of plasma wall at 5 x MIC incubated for 2 hrs by transmission electron microscopy analysis. In kind it is functional, organism-based.
In test [9] the test system is Staphylococcus aureus. Put plainly: Antibacterial activity against Staphylococcus aureus ATCC 29213 assessed as blurred space in cytoplasm and cell wall at 5 x MIC incubated for 2 hrs by transmission electron microscopy analysis. It is filed as functional, organism-based.
For test [10], the system named is Staphylococcus aureus. Put plainly: Antibacterial activity against Staphylococcus aureus ATCC 29213 assessed as cell wall loosening at 5 x MIC incubated for 2 hrs by transmission electron microscopy analysis. It is filed as functional, organism-based.
The test system of test [11] is Staphylococcus aureus. Put plainly: Antibacterial activity against methicillin-resistant Staphylococcus aureus 2 assessed as appearance of cell round pellet at 5 x MIC incubated for 2 hrs by transmission electron microscopy analysis. In kind it is functional, organism-based.
Test [12] deals with Cell membrane. The experiment in a line: Induction of cell membrane disruption in Staphylococcus aureus ATCC 29213 assessed as increase in protein leakage at 5 x MIC incubated for 2 hrs by coomassie brilliant blue dye assay. In kind it is subcellular.
In test [13] the test system is Staphylococcus aureus. Put plainly: Antibacterial activity against methicillin-resistant Staphylococcus aureus 2 assessed as cell wall loosening at 5 x MIC incubated for 2 hrs by transmission electron microscopy analysis. In kind it is functional, organism-based.
In test [14] the test system is Cell membrane. The experiment in a line: Induction of cell membrane disruption in methicillin-resistant Staphylococcus aureus 2 assessed as increase in protein leakage at 5 x MIC incubated for 2 hrs by coomassie brilliant blue dye assay. In kind it is subcellular.
Test [15] concerns Staphylococcus aureus. The experiment in a line: Antibacterial activity against Staphylococcus aureus ATCC 29213 assessed as appearance of cell round pellet at 5 x MIC incubated for 2 hrs by transmission electron microscopy analysis. It is filed as functional, organism-based.

`Cc1onc(-c2ccccc2)c1C(=O)N[C@@H]1C(=O)N2[C@@H]1SC(C)(C)[C@@H]2C(=O)O` [OXACILLIN]: the “fold change (FC)” value with Staphylococcus aureus [1] worked out at 64.
In the case of `CCN1CCN(c2cc3c(cc2F)c(=O)c(C(=O)O)cn3C2CC2)CC1` [ENROFLOXACIN], the MIC was found to be 0.0156 µg/mL (≈ 0.0434 µM) in the test on Escherichia coli, 0.06 µg/mL (≈ 0.167 µM) with Staphylococcus aureus [3], 128 µg/mL (≈ 356 µM) with Staphylococcus aureus [4] and 32 µg/mL (≈ 89 µM) with Staphylococcus aureus [5]. Further, in the test with Staphylococcus aureus [2], the outcome was Active.
As for `CC(C)C[C@@H]1NC(=O)[C@H](CCCN)NC(=O)[C@H](C(C)C)NC(=O)[C@@H]2CCCN2C(=O)[C@@H](Cc2ccccc2)NC(=O)[C@H](CC(C)C)NC(=O)[C@H](CCCN)NC(=O)[C@H](C(C)C)NC(=O)[C@@H]2CCCN2C(=O)[C@@H](Cc2ccccc2)NC1=O` (cyclo(V[Orn]L[dF]PV[Orn]L[dF]P)), the result with Staphylococcus aureus [6], in the test with Staphylococcus aureus [7], with Staphylococcus aureus [8], with Staphylococcus aureus [9], in the test on Staphylococcus aureus [10] and with Staphylococcus aureus [11] was Active. Further, the outcome in the test on Cell membrane [12], in the test on Staphylococcus aureus [13], in the test on Cell membrane [14] and in the test on Staphylococcus aureus [15] was Active.
